# Molecular target: T1, chimeric human H3 receptor (Homo sapiens, UniProt Q9Y5N1)
# T1 construct: made in house; host or cells: Sf9 insect cells (baculovirus); P2 membrane preparation
# Assay: Chimeric human H3 receptor screening GTP binding assay (inhibition of histamine-stimulated GTP-gamma35S binding, Example 8)
# Assay type: biochemical
# Conditions: 4 μM of the compound, 1 μM histamine, "†" in Ki of Table II, read-out: percent inhibition of the signal obtained with 1 μM histamine
# Procedure: This Example illustrates a representative screening assay for evaluating inhibition of histamine-stimulated GTP-gamma^35S binding. Such GTP binding activity can be used to identify H3 antagonists and inverse agonists. A compound analyzed in this assay is referred to herein as a “test compound,” and the initial identification of antagonists and inverse agonists is performed using a test compound concentration of 4 μM.
# Four independent baculoviral stocks (one directing the expression of the chimeric human H3 receptor and three directing the expression of each of the three subunits of a heterotrimeric G-protein) are used to infect a culture of Sf9 cells as described above. P2 membranes are prepared as described above, and are resuspended by Dounce homogenization (tight pestle) in GTP binding assay buffer (50 mM Tris pH 7.4, 120 mM NaCl, 5 mM MgCl2, 2 mM EGTA, 1 mg/ml BSA, 0.2 mg/ml bacitracin, 0.02 mg/ml aprotinin, 0.01 mg/ml saponin, 10 μM GDP) and added to assay tubes at a concentration of 35 μg protein/reaction tube. Non-radiolabeled test compounds are added to separate reactions at a concentration of 4 μM along with 1 μM histamine (agonist). Reactions are initiated by the addition of […] GTP-gamma^35S with a final assay volume of 0.20 ml.
# After a 60-min incubation at room temperature, reactions are terminated by vacuum filtration over GF/C filters (pre-soaked in 50 mM Tris pH 7.4, 120 mM NaCl plus 0.1% BSA) followed by washing with ice-cold buffer (50 mM Tris pH 7.4, 120 mM NaCl). The amount of receptor-bound (and thereby membrane-bound) GTP-gamma^35S is determined by measuring the bound radioactivity, preferably by liquid scintillation spectrometry of the washed filters. Non-specific binding is determined using 10 uM GTP-gammaS and typically represents less than 5 percent of total binding. After subtraction of non-specific binding, data is expressed as percent inhibition of 1 μM histamine signal.
# Neutral antagonists are those test compounds that reduce the histamine-stimulated GTP binding activity towards, but not below, baseline levels. In contrast, in the absence of added histamine, inverse agonists reduce the GTP binding activity of the receptor-containing membranes below baseline. Any test compound that elevates GTP binding activity above baseline in the absence of added histamine in this assay is defined as having agonist activity.
# T1 sequence (Q9Y5N1 with tags, fused parts or gaps): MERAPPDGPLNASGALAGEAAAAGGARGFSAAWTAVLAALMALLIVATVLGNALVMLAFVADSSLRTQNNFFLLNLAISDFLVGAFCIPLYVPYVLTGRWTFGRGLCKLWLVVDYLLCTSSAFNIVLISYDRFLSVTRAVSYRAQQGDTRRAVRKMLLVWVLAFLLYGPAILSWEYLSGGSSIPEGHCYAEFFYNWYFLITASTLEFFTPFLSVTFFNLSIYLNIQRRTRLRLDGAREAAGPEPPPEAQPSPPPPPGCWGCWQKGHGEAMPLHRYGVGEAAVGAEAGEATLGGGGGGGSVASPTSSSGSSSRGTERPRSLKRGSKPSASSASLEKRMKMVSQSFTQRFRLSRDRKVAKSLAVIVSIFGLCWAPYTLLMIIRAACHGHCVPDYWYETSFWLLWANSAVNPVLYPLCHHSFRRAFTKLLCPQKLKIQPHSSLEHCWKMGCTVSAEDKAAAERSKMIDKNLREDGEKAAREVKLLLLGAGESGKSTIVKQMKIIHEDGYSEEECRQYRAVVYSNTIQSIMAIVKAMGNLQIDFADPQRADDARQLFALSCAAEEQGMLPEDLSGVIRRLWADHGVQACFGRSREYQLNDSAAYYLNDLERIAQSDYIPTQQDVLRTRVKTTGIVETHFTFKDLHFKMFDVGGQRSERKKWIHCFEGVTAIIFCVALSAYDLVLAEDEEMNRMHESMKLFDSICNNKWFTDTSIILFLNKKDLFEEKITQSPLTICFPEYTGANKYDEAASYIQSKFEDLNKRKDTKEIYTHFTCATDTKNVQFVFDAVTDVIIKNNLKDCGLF
row,SMILES,inhibition at 4 µM
1,"Cc1ccc(-c2ccc3c(c2)CCN(CC(=O)N2CCN(C4CCC4)CC2)C3)cc1F [Compound 426, 2-[2-(4-cyclobutylpiperazin-1-yl)-2-oxoethyl]-6-(3-fluoro-4-methylphenyl)-1,2,3,4-tetrahydroisoquinoline]",≥ 90%
2,"Cc1cc(-c2ccc3c(c2)CCN(CC(=O)N2CCN(C4CCC4)CC2)C3)ccc1F [Compound 429, 2-[2-(4-cyclobutylpiperazin-1-yl)-2-oxoethyl]-6-(4-fluoro-3-methylphenyl)-1,2,3,4-tetrahydroisoquinoline]",≥ 90%
3,"Cc1cccc(-c2ccc3c(c2)CCN(CC(=O)N2CCN(C4CCC4)CC2)C3)c1 [Compound 432, 2-[2-(4-cyclobutylpiperazin-1-yl)-2-oxoethyl]-6-(3-methylphenyl)-1,2,3,4-tetrahydroisoquinoline]",≥ 90%
4,"Cc1cccc(-c2ccc3c(c2)CCN(CC(=O)N2CCN(C4CCCCC4)CC2)C3)c1 [Compound 434, 2-[2-(4-cyclohexylpiperazin-1-yl)-2-oxoethyl]-6-(3-methylphenyl)-1,2,3,4-tetrahydroisoquinoline]",≥ 90%
5,"Cc1ccc(-c2ccc3c(c2)CCN(CC(=O)N2CCN(C4CCC4)CC2)C3)cc1 [Compound 435, 2-[2-(4-cyclobutylpiperazin-1-yl)-2-oxoethyl]-6-(4-methylphenyl)-1,2,3,4-tetrahydroisoquinoline]",≥ 90%
6,"Cc1ccc(-c2ccc3c(c2)CCN(CC(=O)N2CCN(C4CCCCC4)CC2)C3)cc1 [Compound 437, 2-[2-(4-cyclohexylpiperazin-1-yl)-2-oxoethyl]-6-(4-methylphenyl)-1,2,3,4-tetrahydroisoquinoline]",≥ 90%
7,"Cc1ccc(-c2ccc3c(c2)CCN(CC(=O)N2CCN(C(C)C)CC2)C3)cc1 [Compound 438, 2-[2-(4-isopropylpiperazin-1-yl)-2-oxoethyl]-6-(4-methylphenyl)-1,2,3,4-tetrahydroisoquinoline]",≥ 90%
8,"CC(C)c1cccc(-c2ccc3c(c2)CCN(CC(=O)N2CCN(C4CCC4)CC2)C3)c1 [Compound 439, 2-[2-(4-cyclobutylpiperazin-1-yl)-2-oxoethyl]-6-(3-isopropylphenyl)-1,2,3,4-tetrahydroisoquinoline]",≥ 90%
9,"CC(C)c1cccc(-c2ccc3c(c2)CCN(CC(=O)N2CCN(C4CCCC4)CC2)C3)c1 [Compound 440, 2-[2-(4-cyclopentylpiperazin-1-yl)-2-oxoethyl]-6-(3-isopropylphenyl)-1,2,3,4-tetrahydroisoquinoline]",≥ 90%
10,"CC(C)c1cccc(-c2ccc3c(c2)CCN(CC(=O)N2CCN(C4CCCCC4)CC2)C3)c1 [Compound 441, 2-[2-(4-cyclohexylpiperazin-1-yl)-2-oxoethyl]-6-(3-isopropylphenyl)-1,2,3,4-tetrahydroisoquinoline]",≥ 90%
11,"CC(C)c1cccc(-c2ccc3c(c2)CCN(CC(=O)N2CCN(C(C)C)CC2)C3)c1 [Compound 442, 6-(3-isopropylphenyl)-2-[2-(4-isopropylpiperazin-1-yl)-2-oxoethyl]-1,2,3,4-tetrahydroisoquinoline]",≥ 90%
12,"CC(C)c1ccc(-c2ccc3c(c2)CCN(CC(=O)N2CCN(C4CCC4)CC2)C3)cc1 [Compound 443, 2-[2-(4-cyclobutylpiperazin-1-yl)-2-oxoethyl]-6-(4-isopropylphenyl)-1,2,3,4-tetrahydroisoquinoline]",≥ 90%
13,"CC(C)c1ccc(-c2ccc3c(c2)CCN(CC(=O)N2CCN(C4CCCC4)CC2)C3)cc1 [Compound 444, 2-[2-(4-cyclopentylpiperazin-1-yl)-2-oxoethyl]-6-(4-isopropylphenyl)-1,2,3,4-tetrahydroisoquinoline]",≥ 90%
14,"CC(C)c1ccc(-c2ccc3c(c2)CCN(CC(=O)N2CCN(C4CCCCC4)CC2)C3)cc1 [Compound 445, 2-[2-(4-cyclohexylpiperazin-1-yl)-2-oxoethyl]-6-(4-isopropylphenyl)-1,2,3,4-tetrahydroisoquinoline]",≥ 90%
15,"CC(C)c1ccc(-c2ccc3c(c2)CCN(CC(=O)N2CCN(C(C)C)CC2)C3)cc1 [Compound 446, 6-(4-isopropylphenyl)-2-[2-(4-isopropylpiperazin-1-yl)-2-oxoethyl]-1,2,3,4-tetrahydroisoquinoline]",≥ 90%
16,"Cc1ccc(-c2ccc3c(c2)CCN(CC(=O)N2CCN(C4CCC4)CC2)C3)cc1C [Compound 447, 2-[2-(4-cyclobutylpiperazin-1-yl)-2-oxoethyl]-6-(3,4-dimethylphenyl)-1,2,3,4-tetrahydroisoquinoline]",≥ 90%
17,"Cc1ccc(-c2ccc3c(c2)CCN(CC(=O)N2CCN(C4CCCC4)CC2)C3)cc1C [Compound 448, 2-[2-(4-cyclopentylpiperazin-1-yl)-2-oxoethyl]-6-(3,4-dimethylphenyl)-1,2,3,4-tetrahydroisoquinoline]",≥ 90%

# Next, values leading:
row,inhibition at 4 µM,SMILES
1,≥ 90%,"Cc1ccc(-c2ccc3c(c2)CCN(CC(=O)N2CCN(C4CCC4)CC2)C3)c(F)c1 [Compound 420, 2-[2-(4-cyclobutylpiperazin-1-yl)-2-oxoethyl]-6-(2-fluoro-4-methylphenyl)-1,2,3,4-tetrahydroisoquinoline]"
2,≥ 90%,"Cc1ccc(-c2ccc3c(c2)CCN(CC(=O)N2CCN(C4CCCC4)CC2)C3)c(F)c1 [Compound 421, 2-[2-(4-cyclopentylpiperazin-1-yl)-2-oxoethyl]-6-(2-fluoro-4-methylphenyl)-1,2,3,4-tetrahydroisoquinoline]"
3,≥ 90%,"Cc1ccc(-c2ccc3c(c2)CCN(CC(=O)N2CCN(C4CCCCC4)CC2)C3)c(F)c1 [Compound 422, 2-[2-(4-cyclohexylpiperazin-1-yl)-2-oxoethyl]-6-(2-fluoro-4-methylphenyl)-1,2,3,4-tetrahydroisoquinoline]"
4,≥ 90%,"Cc1ccc(F)c(-c2ccc3c(c2)CCN(CC(=O)N2CCN(C4CCC4)CC2)C3)c1 [Compound 423, 2-[2-(4-cyclobutylpiperazin-1-yl)-2-oxoethyl]-6-(2-fluoro-5-methylphenyl)-1,2,3,4-tetrahydroisoquinoline]"
5,≥ 90%,"Cc1ccc(F)c(-c2ccc3c(c2)CCN(CC(=O)N2CCN(C4CCCC4)CC2)C3)c1 [Compound 424, 2-[2-(4-cyclopentylpiperazin-1-yl)-2-oxoethyl]-6-(2-fluoro-5-methylphenyl)-1,2,3,4-tetrahydroisoquinoline]"
6,≥ 90%,"Cc1ccc(F)c(-c2ccc3c(c2)CCN(CC(=O)N2CCN(C4CCCCC4)CC2)C3)c1 [Compound 425, 2-[2-(4-cyclohexylpiperazin-1-yl)-2-oxoethyl]-6-(2-fluoro-5-methylphenyl)-1,2,3,4-tetrahydroisoquinoline]"
7,≥ 90%,"Cc1ccc(-c2ccc3c(c2)CCN(CC(=O)N2CCN(C4CCCC4)CC2)C3)cc1F [Compound 427, 2-[2-(4-cyclopentylpiperazin-1-yl)-2-oxoethyl]-6-(3-fluoro-4-methylphenyl)-1,2,3,4-tetrahydroisoquinoline]"
8,≥ 90%,"Cc1ccc(-c2ccc3c(c2)CCN(CC(=O)N2CCN(C4CCCCC4)CC2)C3)cc1F [Compound 428, 2-[2-(4-cyclohexylpiperazin-1-yl)-2-oxoethyl]-6-(3-fluoro-4-methylphenyl)-1,2,3,4-tetrahydroisoquinoline]"
9,≥ 90%,"Cc1cc(-c2ccc3c(c2)CCN(CC(=O)N2CCN(C4CCCC4)CC2)C3)ccc1F [Compound 430, 2-[2-(4-cyclopentylpiperazin-1-yl)-2-oxoethyl]-6-(4-fluoro-3-methylphenyl)-1,2,3,4-tetrahydroisoquinoline]"
10,≥ 90%,"Cc1cc(-c2ccc3c(c2)CCN(CC(=O)N2CCN(C4CCCCC4)CC2)C3)ccc1F [Compound 431, 2-[2-(4-cyclohexylpiperazin-1-yl)-2-oxoethyl]-6-(4-fluoro-3-methylphenyl)-1,2,3,4-tetrahydroisoquinoline]"
11,≥ 90%,"Cc1cccc(-c2ccc3c(c2)CCN(CC(=O)N2CCN(C4CCCC4)CC2)C3)c1 [Compound 433, 2-[2-(4-cyclopentylpiperazin-1-yl)-2-oxoethyl]-6-(3-methylphenyl)-1,2,3,4-tetrahydroisoquinoline]"
12,≥ 90%,"Cc1ccc(-c2ccc3c(c2)CCN(CC(=O)N2CCN(C4CCCC4)CC2)C3)cc1 [Compound 436, 2-[2-(4-cyclopentylpiperazin-1-yl)-2-oxoethyl]-6-(4-methylphenyl)-1,2,3,4-tetrahydroisoquinoline]"
